# Assay results from patent US9095136B2, “2-IODO imidazole-derivatives” (BAYER INTELLECTUAL PROPERTY GMBH, priority 2011, dated 2015).
# Marks after values point to notes of the source that are not given here.
# What was measured:
# [1] = log P by HPLC on reversed-phase columns (EEC directive 79/831 Annex V.A8); type: physicochemical
# Description: The log P values were measured according to EEC directive 79/831 Annex V.A8 by HPLC (High Performance Liquid Chromatography) on reversed-phase columns, using the methods below: […] Calibration was carried out using unbranched alkan-2-ones (having from 3 to 16 carbon atoms) with known log P values (the log P values were determined by the retention times using linear interpolation between two successive alkanones). The lambda maX values were determined in the maxima of the chromatographic signals using the UV spectra from 200 nm to 400 nm.
# Sphaerotheca fuliginea [2] = assay: Example B: Sphaerotheca test (cucumber)/protective; type: in vivo; conditions: protective, 500 ppm, evaluation 7 days after inoculation
# Description: Solvent: 49 parts by weight of N,N-dimethylformamide Emulsifier: 1 part by weight of alkylaryl polyglycol ether To produce a suitable preparation of active compound, 1 part by weight of active compound is mixed with the stated amounts of solvent and emulsifier, and the concentrate is diluted with water to the desired concentration. To test for protective activity, young cucumber plants are sprayed with the preparation of active compound at the stated application rate. 1 day after the treatment, the plants are inoculated with a spore suspension of Sphaerotheca fuliginea. The plants are then placed in a greenhouse at 70% relative air humidity and a temperature of 23° C.
# Pyricularia oryzae = type: in vivo; conditions: rice, protective, 500 ppm, evaluation 7 days after inoculation
# Sphaerotheca fuliginea [3] = assay: Example V: preventative in vivo test with Sphaerotheca fuliginea (powdery mildew on cucumber); conditions: 500 ppm, evaluation 12 days after inoculation
# Description: The active compounds tested are prepared by homogenization in a mixture of acetone/Tween/DMSO and then diluted with water to the desired active compound concentration. Cucumber plants (cultivar “Vert petit de Paris”), sown in a 50/50 peat/pozzolana soil substrate and cultivated at 24° C., are treated at the Z11 cotyledon stage by spraying with the active compound, prepared as above. As a control, plants are treated with the mixture of acetone/Tween/DMSO/water without the active compound. After 24 hours, the plants are inoculated by spraying the leaves with an aqueous suspension of Sphaerotheca fuliginea spores. The inoculated cucumber plants are incubated at about 20° C./25° C. and a relative atmospheric humidity of 60/70%.
# Septoria tritici [4] = assay: Example U: preventative in vivo test with Septoria tritici (leaf blotch disease on wheat); conditions: 500 ppm, evaluation 21 to 28 days after inoculation
# Description: The active compounds tested are prepared by homogenization in a mixture of acetone/Tween/DMSO and then diluted with water to the desired active compound concentration. Wheat plants (cultivar “Scipion”), sown in a 50/50 peat/pozzolana soil substrate and cultivated at 22° C. (12 h)/20° C. (12 h), are treated at the 1-leaf stage (height 10 cm) by spraying with the active compound, prepared as above. As a control, plants are treated with the mixture of acetone/Tween/DMSO/water without the active compound. After 24 hours, the plants are inoculated by spraying the leaves with an aqueous suspension of cryogenically preserved Septoria tritici spores.
# Uromyces appendiculatus [5] = assay: Example W: preventative in vivo test with Uromyces appendiculatus (bean rust); conditions: 500 ppm, evaluation 10 days after inoculation
# Description: The active compounds tested are prepared by homogenization in a mixture of acetone/Tween/DMSO and then diluted with water to the desired active compound concentration. Bean plants (cultivar “Saxa”), sown in a 50/50 peat/pozzolana soil substrate and cultivated at 24° C., are treated at the 2-leaf stage (height 9 cm) by spraying with the active compound, prepared as above. As a control, plants are treated with the mixture of acetone/Tween/DMSO/water without the active compound. After 24 hours, the plants are inoculated by spraying the leaves with an aqueous suspension of Uromyces appendiculatus spores.
# Phytophthora infestans = type: in vivo; conditions: tomato, preventative, 500 ppm, evaluation 5 days after inoculation
# Puccinia recondita = assay: Example T: preventative in vivo test with Puccinia recondita (brown rust on wheat); conditions: 500 ppm, evaluation 10 days after inoculation
# Description: The active compounds tested are prepared by homogenization in a mixture of acetone/Tween/DMSO and then diluted with water to the desired active compound concentration. Wheat plants (cultivar “Scipion”), sown in a 50/50 peat/pozzolana soil substrate and cultivated at 22° C. (12 h)/20° C. (12 h), are treated at the 1-leaf stage (height 10 cm) by spraying with the active compound, prepared as above. As a control, plants are treated with the mixture of acetone/Tween/DMSO/water without the active compound. After 24 hours, the plants are inoculated by spraying the leaves with an aqueous suspension of Puccinia recondita spores.
# Septoria tritici [6] = assay: Example I: Septoria tritici test (wheat)/protective; type: in vivo; conditions: protective, 500 ppm, evaluation 21 days after inoculation
# Description: Solvent: 49 parts by weight of N,N-dimethylacetamide Emulsifier: 1 part by weight of alkylaryl polyglycol ether To produce a suitable preparation of active compound, 1 part by weight of active compound is mixed with the stated amounts of solvent and emulsifier, and the concentrate is diluted with water to the desired concentration. To test for protective activity, young plants are sprayed with the preparation of active compound at the stated application rate. After the spray coating has dried on, the plants are sprayed with a spore suspension of Septoria tritici.
# Uromyces appendiculatus [7] = assay: Example E: Uromyces test (bean)/protective; type: in vivo; conditions: protective, 10 ppm, evaluation 10 days after inoculation
# Description: Solvents: 24.5 parts by weight of acetone • 24.5 parts by weight of dimethylacetamide Emulsifier: 1 part by weight of alkylaryl polyglycol ether To produce a suitable preparation of active compound, 1 part by weight of active compound is mixed with the stated amounts of solvent and emulsifier, and the concentrate is diluted with water to the desired concentration. To test for protective activity, young plants are sprayed with the preparation of active compound at the stated application rate. […] The plants are then placed in a greenhouse at about 21° C. and a relative atmospheric humidity of about 90%.
Compound,logP ([1]; pH 2.7),Efficacy % (Sphaerotheca fuliginea [3]) [%],Efficacy % (Septoria tritici [4]) [%],Efficacy % (Uromyces appendiculatus [5]) [%],also measured
OC(Cn1ccnc1I)(c1ccc(Cl)cc1)C1(Oc2ccc(F)cc2)CC1 (stereo not shown) [Example 3],2.55,–,–,–,logP ([1]; pH 7.8): 3.55
OC(Cn1ccnc1I)(c1ccc(F)cc1F)C1(Oc2ccc(F)cc2)CC1 (stereo not shown) [Example 5],–,–,–,–,Eff. % (Sphaerotheca fuliginea [2]): 88%; Eff. % (Pyricularia oryzae): 95%
Fc1ccc(C2(Cn3ccnc3I)OC2c2ccccc2Cl)cc1 (stereo not shown) [Example 7],2.73^[a],–,–,–,–
Fc1cc(Cl)ccc1C1(Cn2ccnc2I)OC1c1ccccc1Cl (stereo not shown) [Example 10],3.23^[a],98,96,–,–
"Fc1ccc(C2(Cn3ccnc3I)OC2c2ccccc2Cl)c(F)c1 (stereo not shown) [Example 12, 1-{[3-(2-chlorophenyl)-2-(2,4-difluorophenyl)oxiran-2-yl]methyl}-2-iodo-1H-imidazole]",–,100,100,99,"Efficacy % (Phytophthora infestans): 88%; log P(HCOOH) ([1]; pH 2.7): 3.31; chromatographic logP ([1]; pH 2.7, log P(HCOOH)): 2.92; chromatographic logP ([1]; pH 2.7, logP): 2.92; Efficacy % (Puccinia recondita): 93%; Eff. % (Septoria tritici [6]): 71%"
Fc1ccc(C2(Cn3ccnc3I)OC2c2ccccc2Cl)c(Cl)c1 (stereo not shown) [Example 16],3.13^[a],–,–,–,–
Fc1ccc(C2(Cn3ccnc3I)OC2c2ccccc2Cl)c(Cl)c1 (stereo not shown) [Example 17],3.68^[a],100,97,100,Eff. % (Uromyces appendiculatus [7]): 75%; Efficacy % (Puccinia recondita): 100%
OC(Cc1c(Cl)cccc1I)(Cn1ccnc1I)C1(Cl)CC1 (stereo not shown) [Example 18],3.04,100,–,100,logP ([1]; pH 7.8): 4
